Positions of bridges follow the written chain, without caps; N, C: chain ends. Non-standard residues stand in square brackets, D forms with d. Chains are numbered I, II in the order given. No end group written: not given here. ξ: configuration not given here. ξK = NCCCCC(N)C(=O)O; Ahx = NCCCCCC(=O)O

For test [1], the target named is His-tagged Stx 2B-subunit (Escherichia phage 933W, UniProt P09386). The test is described as follows: biochemical. Type of test: binding, Escherichia coli O157:H7.
The target in a further test is STX. Conditions: read-out: affinity (Kd) for STX; cited from earlier work.

Sequence of His-tagged Stx 2B-subunit (P09386 20-89 limits assumed): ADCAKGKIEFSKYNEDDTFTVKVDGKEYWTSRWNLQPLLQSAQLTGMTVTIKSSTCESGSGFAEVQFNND

For “I: MAPPRRNRRA[Ahx][ξK][ξK] / II: MAPPRRNRRA[Ahx][ξK] / III: MAPPRRNRRA[Ahx] / IV: MAPPRRNRRA[Ahx] (amide I:12-IV:C, I:13-II:C, II:12-III:C) [PPRRNRR]”, binding in test [1] was characterised by a dissociation constant (Kd) of 2.7 µM. Regarding “I: MAKRRNPRRA[Ahx][ξK][ξK] / II: MAKRRNPRRA[Ahx][ξK] / III: MAKRRNPRRA[Ahx] / IV: MAKRRNPRRA[Ahx] (amide I:12-IV:C, I:13-II:C, II:12-III:C) [KRRNPRR]”, the Kd (usually the concentration at which binding is half-saturated) in test [1] is 2.1 µM. On to “Galα(1-4)-Galβ(1-4)-G1cβ1- [globo3 sugar]”, for which, at STX, the Kd was 1000 µM. The substance “I: MAFRRNRRNA[Ahx][ξK][ξK] / II: MAFRRNRRNA[Ahx][ξK] / III: MAFRRNRRNA[Ahx] / IV: MAFRRNRRNA[Ahx] (amide I:12-IV:C, I:13-II:C, II:12-III:C) [FRRNRRN]” registered a Kd in test [1] of 1.7 µM. With “I: MAPPPRRRRA[Ahx][ξK][ξK] / II: MAPPPRRRRA[Ahx][ξK] / III: MAPPPRRRRA[Ahx] / IV: MAPPPRRRRA[Ahx] (amide I:12-IV:C, I:13-II:C, II:12-III:C) [PPPRRRR]”, the dissociation constant Kd in test [1] was determined as 3.2 µM.

These data come from US9103820B2 (priority 2004, dated 2015).
